Source: the supplement of paper PMC10307832

Tests used:
Assay in all cases: relative viability (nuclei count vs DMSO), 5 days (fraction); higher = more cells survive
NCI-H1793 = tested on: NCI-H1793
Method in brief: (§1)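 Five library-drug doses in √10 steps were combined with a fixed anchor-drug dose, or a single drug was given alone, by pin tool to lung cancer cell lines in 1536-well plates the day after seeding. Nuclei were stained and counted after 5 days. Relative viability is the nuclei count in treated wells over that in vehicle wells, taken as the median of duplicate plates.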

NCI-H647 = tested on: NCI-H647
Method in brief: as §1

LOU-NH91 = tested on: LOU-NH91
Method in brief: as §1

EPLC-272H = tested on: EPLC-272H
Method in brief: as §1

PC-14 = tested on: PC-14
Method in brief: as §1

NCI-H3122 = tested on: NCI-H3122
Method in brief: as §1

NCI-H1993 = tested on: NCI-H1993
Method in brief: as §1

NCI-H520 = tested on: NCI-H520
Method in brief: as §1

NCI-H2347 = tested on: NCI-H2347
Method in brief: as §1

HCC-44 = tested on: HCC-44
Method in brief: as §1

NCI-H1563 = tested on: NCI-H1563
Method in brief: as §1

NCI-H2170 = tested on: NCI-H2170
Method in brief: as §1

H3255 = tested on: H3255
Method in brief: as §1

201T = tested on: 201T
Method in brief: as §1

NCI-H2023 = tested on: NCI-H2023
Method in brief: as §1

COR-L23 = tested on: COR-L23
Method in brief: as §1

NCI-H441 = tested on: NCI-H441
Method in brief: as §1

NCI-H2085 = tested on: NCI-H2085
Method in brief: as §1

NCI-H2405 = tested on: NCI-H2405
Method in brief: as §1

RERF-LC-KJ = tested on: RERF-LC-KJ
Method in brief: as §1

NCI-H1734 = tested on: NCI-H1734
Method in brief: as §1

For `Oc1nc(-c2ccc(C(F)(F)F)cc2)nc2c1CSCC2` [XAV939] + Cc1nc(NC(=O)N2CCC[C@H]2C(N)=O)sc1-c1ccnc(C(C)(C)C(F)(F)F)c1 [Alpelisib] (partner 2 µM), the relative viability (NCI-H1793; first compound 0.08 µM) was 0.589, the relative viability (NCI-H1793; first compound 0.253 µM) was 0.59 and the relative viability (NCI-H1793; first compound 0.8 µM) was 0.697. For the same compound, the relative viability (NCI-H1793; first compound 2.53 µM) was 0.708, the relative viability (NCI-H647; first compound 0.08 µM) was 1.25 and the relative viability (NCI-H647; first compound 0.253 µM) was 1. The relative viability (NCI-H647; first compound 0.8 µM) was 1.06, the relative viability (NCI-H647; first compound 2.53 µM) was 0.922 and the relative viability (LOU-NH91; first compound 0.08 µM) was 0.687. The relative viability (LOU-NH91; first compound 0.253 µM) was 0.659, the relative viability (LOU-NH91; first compound 0.8 µM) was 0.714 and the relative viability (LOU-NH91; first compound 2.53 µM) was 0.648. The relative viability (EPLC-272H; first compound 0.08 µM) was 0.958, the relative viability (EPLC-272H; first compound 0.253 µM) was 0.863 and the relative viability (EPLC-272H; first compound 0.8 µM) was 0.908. The relative viability (EPLC-272H; first compound 2.53 µM) was 0.889, the relative viability (PC-14; first compound 0.08 µM) was 1.03 and the relative viability (PC-14; first compound 0.253 µM) was 0.829. The relative viability (PC-14; first compound 0.8 µM) was 0.906, the relative viability (PC-14; first compound 2.53 µM) was 0.796 and the relative viability (NCI-H3122; first compound 0.08 µM) was 0.812. For the same compound, the relative viability (NCI-H3122; first compound 0.253 µM) was 0.575, the relative viability (NCI-H3122; first compound 0.8 µM) was 0.757 and the relative viability (NCI-H3122; first compound 2.53 µM) was 0.358. It also gave a relative viability (NCI-H1993; first compound 0.8 µM) of 0.635, a relative viability (NCI-H1993; first compound 2.53 µM) of 0.633 and a relative viability (NCI-H520; first compound 0.08 µM) of 0.842. The relative viability (NCI-H520; first compound 0.253 µM) was 0.755, the relative viability (NCI-H520; first compound 0.8 µM) was 0.916 and the relative viability (NCI-H520; first compound 2.53 µM) was 0.648. For the same compound, the relative viability (NCI-H2347; first compound 0.08 µM) was 1.08, the relative viability (NCI-H2347; first compound 0.253 µM) was 0.97 and the relative viability (NCI-H2347; first compound 0.8 µM) was 1.05. The relative viability (NCI-H2347; first compound 2.53 µM) was 0.926, the relative viability (HCC-44; first compound 0.08 µM) was 0.953 and the relative viability (HCC-44; first compound 0.253 µM) was 0.675. For the same compound, the relative viability (HCC-44; first compound 0.8 µM) was 0.775, the relative viability (HCC-44; first compound 2.53 µM) was 0.737 and the relative viability (NCI-H1563; first compound 0.08 µM) was 0.937. It also gave a relative viability (NCI-H1563; first compound 0.253 µM) of 0.864, a relative viability (NCI-H1563; first compound 0.8 µM) of 0.804 and a relative viability (NCI-H1563; first compound 2.53 µM) of 0.708. The relative viability (NCI-H2170; first compound 0.08 µM) was 0.855, the relative viability (NCI-H2170; first compound 0.253 µM) was 0.612 and the relative viability (NCI-H2170; first compound 0.8 µM) was 0.654. It also gave a relative viability (NCI-H2170; first compound 2.53 µM) of 0.578, a relative viability (H3255; first compound 0.08 µM) of 0.965 and a relative viability (H3255; first compound 0.253 µM) of 0.709. It also gave a relative viability (H3255; first compound 0.8 µM) of 0.414, a relative viability (H3255; first compound 2.53 µM) of 0.522 and a relative viability (201T; first compound 0.08 µM) of 1. For the same compound, the relative viability (201T; first compound 0.253 µM) was 0.875, the relative viability (201T; first compound 0.8 µM) was 0.947 and the relative viability (201T; first compound 2.53 µM) was 0.902. The relative viability (NCI-H2023; first compound 0.08 µM) was 0.572, the relative viability (NCI-H2023; first compound 0.253 µM) was 0.524 and the relative viability (NCI-H2023; first compound 0.8 µM) was 0.525. For the same compound, the relative viability (NCI-H2023; first compound 2.53 µM) was 0.412, the relative viability (COR-L23; first compound 0.08 µM) was 1 and the relative viability (COR-L23; first compound 0.253 µM) was 0.73. For the same compound, the relative viability (COR-L23; first compound 0.8 µM) was 0.772, the relative viability (COR-L23; first compound 2.53 µM) was 0.576 and the relative viability (NCI-H441; first compound 0.08 µM) was 0.687. It also gave a relative viability (NCI-H441; first compound 0.253 µM) of 0.486, a relative viability (NCI-H441; first compound 0.8 µM) of 0.742 and a relative viability (NCI-H441; first compound 2.53 µM) of 0.657. For the same compound, the relative viability (NCI-H2085; first compound 0.08 µM) was 0.993, the relative viability (NCI-H2085; first compound 0.253 µM) was 0.898 and the relative viability (NCI-H2085; first compound 0.8 µM) was 0.814. It also gave a relative viability (NCI-H2085; first compound 2.53 µM) of 0.737, a relative viability (NCI-H2405; first compound 0.08 µM) of 0.922 and a relative viability (NCI-H2405; first compound 0.253 µM) of 0.804. The relative viability (NCI-H2405; first compound 0.8 µM) was 0.732, the relative viability (NCI-H2405; first compound 2.53 µM) was 0.635 and the relative viability (RERF-LC-KJ; first compound 0.08 µM) was 0.702. The relative viability (RERF-LC-KJ; first compound 0.253 µM) was 0.708, the relative viability (RERF-LC-KJ; first compound 0.8 µM) was 0.768 and the relative viability (RERF-LC-KJ; first compound 2.53 µM) was 0.735. It also gave a relative viability (NCI-H1734; first compound 0.08 µM) of 0.713, a relative viability (NCI-H1734; first compound 0.253 µM) of 0.64 and a relative viability (NCI-H1734; first compound 0.8 µM) of 0.634. It also gave a relative viability (NCI-H1734; first compound 2.53 µM) of 0.606.
